The NIST ThermoML archive (doi:10.1016/j.jct.2014.02.021)
Values joined by “and” are separate entries in the source; they are usually repeats but may differ in a detail not shown here. Equal entries are not always repeated.

Columns and labels:
[1] = 298.15 K; 101 kPa; Liquid; Vibrating tube method
[2] = xn = mol fraction of the nth substance listed; details: 298.15 K, 101 kPa, Liquid, Vibrating tube method

CN(C)C=O [dimethylformamide]
Details	mass density [kg/m3]
[1]	943.974

CO [methanol]
Details	mass density [kg/m3]
[1]	786.58

CO [methanol] + CC#N
Details	mass density [kg/m3]
[2], x2 = 0	786.58

CO [methanol] + CN(C)C=O
Details	mass density [kg/m3]
[2], x2 = 0	786.58

CC#N [acetonitrile] + CO
[2]
Details	mass density
x1 = 0.0992	787.14 kg/m3
x1 = 0.1002	787.104 kg/m3
x1 = 0.1075	787.149 kg/m3
x1 = 0.197	786.692 kg/m3
x1 = 0.1984	786.63 kg/m3
x1 = 0.2008	786.647 kg/m3
x1 = 0.4002	784.701 kg/m3
x1 = 0.4004	784.66 kg/m3
x1 = 0.4013	784.644 kg/m3
x1 = 0.465	784.22 kg/m3
x1 = 0.4653	784.25 kg/m3
x1 = 0.5041	783.427 kg/m3
x1 = 0.5042	783.347 kg/m3
x1 = 0.5047	783.356 kg/m3
x1 = 0.601	782.103 kg/m3 and 782.009 kg/m3
x1 = 0.6056	781.935 kg/m3
x1 = 0.7992	779.248 kg/m3
x1 = 0.8012	779.292 kg/m3
x1 = 0.8067	779.242 kg/m3
x1 = 0.9007	777.825 kg/m3
x1 = 0.9044	777.935 kg/m3
x1 = 0.9049	777.896 kg/m3
x1 = 0.9358	777.391 kg/m3
x1 = 0.9376	777.347 kg/m3
x1 = 0.9382	777.385 kg/m3
x1 = 1	776.615 kg/m3

CN(C)C=O [dimethylformamide] + CO
[2]
Details	mass density
x1 = 0.0496	803.451 kg/m3
x1 = 0.0502	803.39 kg/m3
x1 = 0.0511	803.056 kg/m3
x1 = 0.0991	818.484 kg/m3
x1 = 0.1021	818.46 kg/m3
x1 = 0.1084	818.189 kg/m3
x1 = 0.1981	843.566 kg/m3
x1 = 0.1988	843.761 kg/m3
x1 = 0.2004	843 kg/m3
x1 = 0.4022	882.138 kg/m3 and 881.976 kg/m3
x1 = 0.4054	881.38 kg/m3
x1 = 0.4986	896.174 kg/m3
x1 = 0.5002	894.978 kg/m3
x1 = 0.5013	896.278 kg/m3
x1 = 0.5982	909.277 kg/m3
x1 = 0.6008	908.588 kg/m3
x1 = 0.6031	909.254 kg/m3
x1 = 0.7998	928.355 kg/m3
x1 = 0.8028	928.308 kg/m3
x1 = 0.8054	928.317 kg/m3
x1 = 0.8997	936.786 kg/m3
x1 = 0.9033	936.655 kg/m3
x1 = 0.9039	936.718 kg/m3
x1 = 1	943.974 kg/m3

CC1COC(=O)O1 (configuration not stated) [4-methyl-1,3-dioxolan-2-one]
Details	mass density [kg/m3]
[1]	1199.49

CC#N [acetonitrile]
Details	mass density [kg/m3]
[1]	776.615

CC1COC(=O)O1 (configuration not stated) [4-methyl-1,3-dioxolan-2-one] + CO
[2]
Details	mass density [kg/m3]
x1 = 0.0484	828.25
x1 = 0.0497	828.25
x1 = 0.051	829.62
x1 = 0.0987	871.34
x1 = 0.0991	870.05
x1 = 0.0999	869.111
x1 = 0.1972	932.83
x1 = 0.1991	936.46
x1 = 0.2001	939.29
x1 = 0.3942	1035.57
x1 = 0.3998	1021.45
x1 = 0.4001	1037.34
x1 = 0.4998	1069.62
x1 = 0.5022	1072.85
x1 = 0.505	1072.84
x1 = 0.598	1103.43
x1 = 0.6017	1106.39
x1 = 0.6049	1103.9
x1 = 0.7939	1159.25
x1 = 0.7979	1159.25
x1 = 0.8009	1158.72
x1 = 0.9	1179.23
x1 = 0.9011	1179.68
x1 = 0.9031	1179.23
x1 = 1	1199.49

CO [methanol] + CC1COC(=O)O1
Details	mass density [kg/m3]
[2], x2 = 0	786.58
